Experimental data as given in PubChem BioAssay (NCI).
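48-hour exposure; five concentrations; linearly interpolated endpoints. Abbreviation: GI50, concentration required for 50% inhibition of growth. At the TGI there is no net growth.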

How the values were obtained:
Experiment in all cases: NCI tumour cell line growth inhibition, 48 h
786-0 renal = test system: 786-0 renal
A498 renal = test system: A498 renal
A549 NSCLC = test system: A549 NSCLC
ACHN renal = test system: ACHN renal
BT-549 breast = test system: BT-549 breast
CAKI-1 renal = test system: CAKI-1 renal
CCRF-CEM leukemia = test system: CCRF-CEM leukemia
COLO 205 colon = test system: COLO 205 colon
DU-145 prostate = test system: DU-145 prostate
EKVX NSCLC = test system: EKVX NSCLC
HCC-2998 colon = test system: HCC-2998 colon
HCT-116 colon = test system: HCT-116 colon
HCT-15 colon = test system: HCT-15 colon
HL-60(TB) leukemia = test system: HL-60(TB) leukemia
HOP-62 NSCLC = test system: HOP-62 NSCLC
HOP-92 NSCLC = test system: HOP-92 NSCLC
HS 578T breast = test system: HS 578T breast
HT29 colon = test system: HT29 colon
IGROV1 ovarian = test system: IGROV1 ovarian
K-562 leukemia = test system: K-562 leukemia
KM12 colon = test system: KM12 colon
LOX IMVI melanoma = test system: LOX IMVI melanoma
M14 melanoma = test system: M14 melanoma
MALME-3M melanoma = test system: MALME-3M melanoma
MCF7 breast = test system: MCF7 breast
MDA-MB-231 breast = test system: MDA-MB-231 breast
MDA-MB-435 = test system: MDA-MB-435
MDA-MB-468 breast = test system: MDA-MB-468 breast
MOLT-4 leukemia = test system: MOLT-4 leukemia
NCI-H226 lung = test system: NCI-H226 lung
NCI-H23 lung = test system: NCI-H23 lung
NCI-H460 lung = test system: NCI-H460 lung
NCI-H522 lung = test system: NCI-H522 lung
NCI/ADR-RES ovarian = test system: NCI/ADR-RES ovarian
OVCAR-3 ovarian = test system: OVCAR-3 ovarian
OVCAR-4 ovarian = test system: OVCAR-4 ovarian
OVCAR-5 ovarian = test system: OVCAR-5 ovarian
OVCAR-8 ovarian = test system: OVCAR-8 ovarian
PC-3 prostate = test system: PC-3 prostate
RPMI-8226 leukemia = test system: RPMI-8226 leukemia
RXF 393 renal = test system: RXF 393 renal
SF-268 CNS = test system: SF-268 CNS
SF-295 CNS = test system: SF-295 CNS
SF-539 CNS = test system: SF-539 CNS
SK-MEL-2 melanoma = test system: SK-MEL-2 melanoma
SK-MEL-28 melanoma = test system: SK-MEL-28 melanoma
SK-MEL-5 melanoma = test system: SK-MEL-5 melanoma
SK-OV-3 ovarian = test system: SK-OV-3 ovarian
SN12C renal = test system: SN12C renal
SNB-19 CNS = test system: SNB-19 CNS
SNB-75 CNS = test system: SNB-75 CNS
SR leukemia = test system: SR leukemia
SW-620 colon = test system: SW-620 colon
T-47D breast = test system: T-47D breast
TK-10 renal = test system: TK-10 renal
U251 CNS = test system: U251 CNS
UACC-257 melanoma = test system: UACC-257 melanoma
UACC-62 melanoma = test system: UACC-62 melanoma
UO-31 renal = test system: UO-31 renal

Q: How did the GI50 (786-0 renal) turn out when Cn1cc(-c2cc(N)n3nc(-c4c[nH]c5ccccc45)cc3n2)c2cc(Cl)ccc21 was run?
A: 1.6 µM

Q: And the TGI (786-0 renal)?
A: 3.2 µM

Q: What about the GI50 (A498 renal) of the same compound?
A: 10.1 µM

Q: And the TGI (A498 renal)?
A: 22 µM

Q: And the GI50 (A549 NSCLC)?
A: 3.15 µM

Q: What about the TGI (A549 NSCLC) of the same compound?
A: 13 µM

Q: And the GI50 (ACHN renal)?
A: 2.98 µM

Q: And the TGI (ACHN renal)?
A: 10.6 µM

Q: What about the GI50 (BT-549 breast) of the same compound?
A: 16.9 µM

Q: What about the TGI (BT-549 breast) of the same compound?
A: 31.9 µM

Q: What about the GI50 (CAKI-1 renal) of the same compound?
A: 2.96 µM

Q: What about the TGI (CAKI-1 renal) of the same compound?
A: 12.4 µM

Q: And the GI50 (CCRF-CEM leukemia)?
A: 3.22 µM

Q: What about the TGI (CCRF-CEM leukemia) of the same compound?
A: > 100 µM

Q: And the GI50 (COLO 205 colon)?
A: 2.17 µM

Q: What about the TGI (COLO 205 colon) of the same compound?
A: 4.26 µM

Q: What about the GI50 (DU-145 prostate) of the same compound?
A: 5.69 µM

Q: What about the TGI (DU-145 prostate) of the same compound?
A: 22.5 µM

Q: What about the GI50 (EKVX NSCLC) of the same compound?
A: 2.8 µM

Q: And the TGI (EKVX NSCLC)?
A: 12.5 µM

Q: And the GI50 (HCC-2998 colon)?
A: 1.8 µM

Q: And the TGI (HCC-2998 colon)?
A: 3.41 µM

Q: What about the GI50 (HCT-116 colon) of the same compound?
A: 1.84 µM

Q: And the TGI (HCT-116 colon)?
A: 3.5 µM

Q: What about the GI50 (HCT-15 colon) of the same compound?
A: 1.72 µM

Q: And the TGI (HCT-15 colon)?
A: 3.29 µM

Q: And the GI50 (HL-60(TB) leukemia)?
A: 2.91 µM

Q: And the TGI (HL-60(TB) leukemia)?
A: 13.7 µM

Q: And the GI50 (HOP-62 NSCLC)?
A: 2.84 µM

Q: And the TGI (HOP-62 NSCLC)?
A: 10.8 µM

Q: What about the GI50 (HOP-92 NSCLC) of the same compound?
A: 2.73 µM

Q: What about the TGI (HOP-92 NSCLC) of the same compound?
A: 9.96 µM

Q: And the GI50 (HS 578T breast)?
A: 4.06 µM

Q: What about the TGI (HS 578T breast) of the same compound?
A: 24.3 µM

Q: And the GI50 (HT29 colon)?
A: 1.76 µM

Q: What about the TGI (HT29 colon) of the same compound?
A: 3.43 µM

Q: What about the GI50 (IGROV1 ovarian) of the same compound?
A: 3.61 µM

Q: What about the TGI (IGROV1 ovarian) of the same compound?
A: 14.6 µM

Q: What about the GI50 (K-562 leukemia) of the same compound?
A: 2.27 µM

Q: And the TGI (K-562 leukemia)?
A: 5.68 µM

Q: What about the GI50 (KM12 colon) of the same compound?
A: 2.55 µM

Q: And the TGI (KM12 colon)?
A: 6.63 µM

Q: What about the GI50 (LOX IMVI melanoma) of the same compound?
A: 1.71 µM

Q: And the TGI (LOX IMVI melanoma)?
A: 3.08 µM

Q: What about the GI50 (M14 melanoma) of the same compound?
A: 2.15 µM

Q: What about the TGI (M14 melanoma) of the same compound?
A: 4.93 µM

Q: And the GI50 (MALME-3M melanoma)?
A: 3.93 µM

Q: What about the TGI (MALME-3M melanoma) of the same compound?
A: 14.3 µM

Q: And the GI50 (MCF7 breast)?
A: 1.65 µM

Q: What about the TGI (MCF7 breast) of the same compound?
A: 3.58 µM

Q: What about the GI50 (MDA-MB-231 breast) of the same compound?
A: 1.9 µM

Q: What about the TGI (MDA-MB-231 breast) of the same compound?
A: 3.61 µM

Q: What about the GI50 (MDA-MB-435) of the same compound?
A: 3.69 µM

Q: And the TGI (MDA-MB-435)?
A: 13.4 µM

Q: What about the GI50 (MDA-MB-468 breast) of the same compound?
A: 1.89 µM

Q: And the TGI (MDA-MB-468 breast)?
A: 4.59 µM

Q: What about the GI50 (MOLT-4 leukemia) of the same compound?
A: 1.87 µM

Q: What about the TGI (MOLT-4 leukemia) of the same compound?
A: 5.24 µM

Q: What about the GI50 (NCI-H226 lung) of the same compound?
A: 14.1 µM

Q: What about the TGI (NCI-H226 lung) of the same compound?
A: 47.1 µM

Q: And the GI50 (NCI-H23 lung)?
A: 2.45 µM

Q: What about the TGI (NCI-H23 lung) of the same compound?
A: 7.38 µM

Q: What about the GI50 (NCI-H460 lung) of the same compound?
A: 2.35 µM

Q: And the TGI (NCI-H460 lung)?
A: 5.45 µM

Q: And the GI50 (NCI-H522 lung)?
A: 1.64 µM

Q: And the TGI (NCI-H522 lung)?
A: 3.43 µM

Q: What about the GI50 (NCI/ADR-RES ovarian) of the same compound?
A: 2.85 µM

Q: What about the TGI (NCI/ADR-RES ovarian) of the same compound?
A: 9.09 µM

Q: And the GI50 (OVCAR-3 ovarian)?
A: 4.75 µM

Q: What about the TGI (OVCAR-3 ovarian) of the same compound?
A: 29.6 µM

Q: What about the GI50 (OVCAR-4 ovarian) of the same compound?
A: 7.3 µM

Q: And the TGI (OVCAR-4 ovarian)?
A: 29.7 µM

Q: And the GI50 (OVCAR-5 ovarian)?
A: 2.09 µM

Q: What about the TGI (OVCAR-5 ovarian) of the same compound?
A: 4.81 µM

Q: What about the GI50 (OVCAR-8 ovarian) of the same compound?
A: 3.53 µM

Q: And the TGI (OVCAR-8 ovarian)?
A: 14.2 µM

Q: What about the GI50 (PC-3 prostate) of the same compound?
A: 3.15 µM

Q: And the TGI (PC-3 prostate)?
A: 11.4 µM

Q: What about the GI50 (RPMI-8226 leukemia) of the same compound?
A: 3.42 µM

Q: What about the TGI (RPMI-8226 leukemia) of the same compound?
A: 29 µM

Q: And the GI50 (RXF 393 renal)?
A: 2.47 µM

Q: And the TGI (RXF 393 renal)?
A: 8.46 µM

Q: And the GI50 (SF-268 CNS)?
A: 5.21 µM

Q: What about the TGI (SF-268 CNS) of the same compound?
A: 26.6 µM

Q: What about the GI50 (SF-295 CNS) of the same compound?
A: 1.87 µM

Q: What about the TGI (SF-295 CNS) of the same compound?
A: 3.79 µM

Q: What about the GI50 (SF-539 CNS) of the same compound?
A: 1.81 µM

Q: What about the TGI (SF-539 CNS) of the same compound?
A: 3.66 µM

Q: What about the GI50 (SK-MEL-2 melanoma) of the same compound?
A: 6.75 µM

Q: What about the TGI (SK-MEL-2 melanoma) of the same compound?
A: 24 µM

Q: What about the GI50 (SK-MEL-28 melanoma) of the same compound?
A: 7.16 µM

Q: What about the TGI (SK-MEL-28 melanoma) of the same compound?
A: 19.9 µM

Q: What about the GI50 (SK-MEL-5 melanoma) of the same compound?
A: 7.16 µM

Q: What about the TGI (SK-MEL-5 melanoma) of the same compound?
A: 19.7 µM

Q: And the GI50 (SK-OV-3 ovarian)?
A: 15.9 µM

Q: And the TGI (SK-OV-3 ovarian)?
A: 43 µM

Q: And the GI50 (SN12C renal)?
A: 5.3 µM

Q: What about the TGI (SN12C renal) of the same compound?
A: 18.8 µM

Q: And the GI50 (SNB-19 CNS)?
A: 4.32 µM

Q: And the TGI (SNB-19 CNS)?
A: 16.3 µM

Q: What about the GI50 (SNB-75 CNS) of the same compound?
A: 4 µM

Q: And the TGI (SNB-75 CNS)?
A: 18.3 µM

Q: What about the GI50 (SR leukemia) of the same compound?
A: 0.857 µM

Q: And the TGI (SR leukemia)?
A: > 100 µM

Q: What about the GI50 (SW-620 colon) of the same compound?
A: 2 µM

Q: And the TGI (SW-620 colon)?
A: 3.92 µM

Q: And the GI50 (T-47D breast)?
A: 4.44 µM

Q: And the TGI (T-47D breast)?
A: 20 µM

Q: What about the GI50 (TK-10 renal) of the same compound?
A: 4.34 µM

Q: And the TGI (TK-10 renal)?
A: 15.7 µM

Q: What about the GI50 (U251 CNS) of the same compound?
A: 2.01 µM

Q: What about the TGI (U251 CNS) of the same compound?
A: 4.44 µM

Q: What about the GI50 (UACC-257 melanoma) of the same compound?
A: 10.6 µM

Q: What about the TGI (UACC-257 melanoma) of the same compound?
A: 23.5 µM

Q: And the GI50 (UACC-62 melanoma)?
A: 5.36 µM

Q: And the TGI (UACC-62 melanoma)?
A: 18.7 µM

Q: And the GI50 (UO-31 renal)?
A: 4.22 µM

Q: And the TGI (UO-31 renal)?
A: 16.9 µM
